Assay results: patent publication US11963519B2 (priority 2022, dated 2024)
Values joined by “and” are separate entries in the source; they are usually repeats but may differ in a detail not shown here. Equal values may be shown once.

Experiments:
[1] = tested on: CD-1 mice; type: in vivo, mouse
[2] = tested on: CD-1 mice; type: in vivo, mouse; remark: listed apart in the source
[3] = tested on: CD-1 mice; settings: mouse, in vivo

Compound | Open-field test Number of times of exploratory behaviors ([1]; n=12) | Open-field test Number of times of zone crossing ([1]; n=12) | Open-field test Total movement distance ([1]; n=12) | TST Motionlessness time ([2]; n=12) | exploratory behaviors in open-field test of BCG+PTX model mice ([1]; mouse, in vivo) | exploratory behaviors in open-field test of depression model mice ([1]; mouse, in vivo) | number of times of zone crossing in open-field test of BCG+PTX model mice ([1]; mouse, in vivo) | number of times of zone crossing in open-field test of depression model mice ([1]; mouse, in vivo) | total movement distance in open-field test of BCG+PTX model mice ([1]; mouse, in vivo) | total movement distance in open-field test of depression model mice ([1]; mouse, in vivo) | motionlessness time (behavioral despair state) in TST of BCG+PTX model mice ([2]; mouse, in vivo) | sucrose preference rate in depression model mice [3]
Bacille Calmette-Guerin [BCG] | 23.83 ± 12.41 and 38.92 ± 15.96 | 104.91 ± 35.1528 and 138.73 ± 23.44 | 582.74 ± 211.42 cm and 734.20 ± 349.87 cm | 122.60 ± 34.11 s and 98.84 ± 21.35 s | – | – | – | – | – | – | – | –
CN(C)CCCN1c2ccccc2CCc2ccccc21 [IMI, imipramine] | – | – | – | – | increased | decreased | increased | decreased | increased | decreased | improved | significantly reduce
